Reference: patent US20230348978A1, “TREATMENT OF ALZHEIMER'S DISEASE” (SELONTERRA, INC., priority 2020, published 2023)

System: E4E4 neurons
Assay: qPCR gene expression in E4E4 neurons treated with GPR4 agonist
Assay type: cell-based, human
Settings: six hours, vs E4E4 vehicle-treated neurons
Excerpt: Example 1: Cultivation of human isogenic neurons carrying either the homozygous APOE4 genotype (E4E4) or the homozygous APOE3 genotype (E3E3). Commercially available human isogenic neurons were acquired from Fujifilm Cellular Dynamics Inc. The homozygous APOE4 genotype (E4E4) neurons were designated DDP-NRC-1× 01434.779 and herein they are referred to as E4E4 neurons. The homozygous APOE3 genotype (E3E3) neurons were designated R1013 and herein they are referred to as E3E3 neurons. The neurons were plated and cultivated in 96-well plates. Prior to plating of neurons, the manufacturer supplied complete maintenance medium was prepared and stored at 4 degrees Celsius. The 96-well plates were double coated with poly-L-ornithin (PLO Sigma; P4957) and laminin (Sigma; L2020) by first coating the wells with poly-L-ornithin overnight at 4 degrees Celsius. Wells were rinsed with phosphate-buffered saline and then laminin diluted in phosphate-buffered saline at a concentration of 10 micrograms/milliliter was added for three hours. Complete maintenance medium was equilibrated to room temperature. Neurons were thawed for three minutes in a 37 degrees Celsius water bath. The content of the vial was transferred to a 50 ml conical tube by adding one milliliter of room-temperature equilibrated complete maintenance medium and suspending the neurons. The neuron suspension was transferred to the 50 ml conical tube. This neuron suspension was further diluted by addition of eight milliliter of complete maintenance medium. A viable neuron count was performed and the neurons were plated into individual wells of a 96-well plate at a neuronal seed density of 125,000 neurons per cm^2. The E3E3 and the E4E4 containing 96-well plates were transferred into a cell incubator and incubated at 37 degrees Celsius and 5% CO2. E3E3 and E4E4 neurons plated in this way were allowed to attach to the wells of the 96-well plate for 24 hours at which time a 100% medium change to fresh complete maintenance medium was performed. The E3E3 and E4E4 neurons were then continued to be cultivated at 37 degrees Celsius and 5% CO2. On Day 5 after plating a 50% medium change was performed by removal of 50% of the cell supernatant and addition of the same volume of fresh complete maintenance medium and then the 96-well plates were continued to be cultivated at 37 degrees Celsius and 5% CO2. On Day 9 after plating, a 50% medium change was performed by removal of 50% of the cell supernatant and addition of the same volume of fresh complete maintenance medium. This medium change was performed before neurons were treated with compounds on Day 9 after plating.
Example 2: Treatment of E4E4 neurons with the exemplary GPR4 agonist SLC2004 and vehicle and E3E3 neurons with vehicle. E4E4 and E3E3 neurons were plated and cultivated in individual wells of a 96-well plate as described in Example 1. The compound spingosylphosphorylcholine (SLC2004) (Sigma; S4257) is a lyophilized powder with a white to yellow appearance and a molecular weight of 464.62 Dalton. A fresh stock solution of SLC2004 was prepared in methanol as vehicle at a stock concentration of 300 millimolar. This stock solution was further diluted to yield two 21-fold concentrated solutions of the intended in-well concentrations. For one of the 21-fold concentrated SLC2004 solution, a final SLC2004 in-well concentration of 3 micromolar was achieved by adding 10 microliters of this 21-fold concentrated SLC2004 solution to 200 microliters of complete maintenance medium in each well of the 96-well plate. For the second 21-fold concentrated SLC2004 solution, a final SLC2004 in-well concentration of 10 micromolar was achieved by adding 10 microliters of this 21-fold concentrated SLC2004 solution to 200 microliters of complete maintenance medium in each well of the 96-well plate. All wells with SLC2004-treated neurons contained the same amount of 0.01% methanol in complete maintenance medium. […]

CCCCCCCCCCCCC/C=C/[C@@H](O)[C@@H](N)COP(=O)([O-])OCC[N+](C)(C)C [SLC2004, sphingosylphosphorylcholine]
downregulated: expression of ITGB3 (3 micromolar)
upregulated: expression of CCND3 (3 micromolar) | expression of VCL (3 micromolar) | expression of BDNF (10 micromolar) | expression of CTGF (10 micromolar) | expression of YAP1 (10 micromolar)
